The values that follow come from patent US6046228A, “Anti-viral pharmaceutical compositions containing saturated 1,2-dithiaheterocyclic compounds and uses thereof” (priority 1999, dated 2000).

Holding throughout (type): cell-based
Data set [1] relates to HIV-1 from latently infected U1 cells. The experiment in a line: virus production from TNF-α stimulated latently infected U1 cells. Conditions: FIG. 3(A); for formation of infectious virus from infected cells: in words. The method, then:
(§1) U1 cells latently infected with two copies of HIV-1 proviral DNA per cell (Clous et al., J. Immunol. 142: 431-438, (1989)) were treated with 5 ng/ml tumor necrosis factor-α(TNF-α) for 24 hours to stimulate production of HIV-1 virions, after which various concentrations of 624151 were added to the cultures and incubated for an additional 48 hours. Cultures were analyzed for cell viability by the XTT reduction assay and cells were counted and scored for viability by trypan blue exclusion. Cells pellets were lysed (0.5% Triton X-100, 300 mM NaCl, 50 mM Tris-HCl, pH 7.6, 10 μg/ml each of Leupeptin and aprotinin (Boehringer Mannheim), 1.8 mg/ml iodoacetamide (Sigma Chemical Co., St. Louis, Mo.) and 1.0 mg/ml the protease inhibitor Pefabloc SC (Boehringer Mannheim at 4° C. for 15 min. and then quantitated for viral p24 content by ELISA. Cell-free supernatant samples were collected and analyzed for virus content by p24 ELISA, and infectivity in cultures of 174xCEM cells. Briefly, serial 1/2 dilutions of the supernatant were placed with 5×10^3 174xCEM cells and cultured for 7 days, cell supernatants were analyzed for viral p24 content, and the number of infectious units/ml calculated. In addition, cell free supernatants were centrifuged at 17,000×g for 1 hour at 4° C. to collect virion pellets. Proteins from both the virion and cellular lysates were separated by 4-20% SDS-PAGE (50 μg protein per lane), blotted onto PVDF membranes, reacted with anti-p7 and anti-p24 antisera, and then probed with HRP-conjugated goat anti-rabbit IgG and subsequently viewed with Western Blot Chemiluminescence Reagent (Dupont NEN, Wilmington, Del.).
Once proviral DNA has integrated into the cellular DNA, compounds that act on replicative events during the pre-integrative phase of infection are without effect. However, the zinc fingers as a part of the Pr55^gag and Pr160^gag-pol participate in the post-integrative phase production of progeny infectious virions, and the zinc finger-reactive 624151 should affect those functions. To test this possibility, we evaluated the effects of 624151 on cell viability and the production of viral proteins and infectious virions from U1 cells that latently harbor two copies of HIV-1 proviral DNA. Stimulation of U1 cells with TNF-α results in the production of high levels of p24 and infectious virions.

For another data set, the system named is HIV-1NL4-3 V179D. The experiment in a line: XTT cytopathicity assay, NL4-3 site-directed RT mutant. The conditions noted are these: MT-2, NL4-3 V179D. The procedure:
(§2) Initial anti-HIV screening was performed with CEM-SS cells and HIV-1RFusing the XTT cytoprotection assay as previously described (Weislow et al., J. National Cancer Inst. 81: 577-586, (1989)). HIV-1 isolates included common laboratory stains (RF, IIIB and MN), as well as a panel of HIV-1 clinical isolates (Cushman et al., J. Med. Chem. 37: 3040-3050, (1994)). The pyridone-resistant HIV-1A17 isolate (Nunberg et al., J. Virol., 65: 4887-4892 (1991)) was obtained from Emilio Emini at Merck Sharpe and Dohme Laboratories. Phytohemagglutinin-stimulated human peripheral blood lymphocytes (PBLs) and fresh monocyte-macrophage (Mono/MF) cultures were prepared and utilized in antiviral assays as previously described (Rice et al., Proc. Nat'l. Academy Science, USA 90: 9721-9724, (1993)); (Cushman et al., J. Med. Chem. 37: 3040-3050, (1994)). EC50 values for these cultures indicate the drug concentration that provided a 50% reduction in viral p24 production. […] The compounds can be synthesized according to the teachings of Singh et al., Sulfur Letters 8: 107-114, (1988). The 4,5-cis-dihydroxy(1,1-dioxy-1,2,-dithiohexane) compound (NSC 624151) has been abbreviated as 624151 for convenience. MT-2, MT-4, U1, HeLa-CD4-LTR-β-gal and 174xCEM cells were obtained from the AIDS Research and Reference Program (National Institute of Allergy and Infectious Disease, National Institutes of Health, Bethesda, Md. USA), as were the HIV-2MS and the AZT-resistant HIV-1G910-6 isolates.
(§3) ^a Anti-HIV studies utilizing lymphocytederived cell lines were
(§4) performed using the XTT cytopathicity assay, while antiviral assays

The next data set has as its system HIV-1NL4-3 V1081. The description is as above. Conditions: MT-2, NL4-3 V1081. The procedure: as §2, §3, §4
The test system of another data set is HIV-1NL4-3 L74V. The data set is described as above. Conditions: MT-2, NL4-3 L74V. The method, then: as §2, §3, §4
In a further data set the test system is HIV-1NL4-3 Y181C. The description is as above. Conditions: MT-2, NL4-3 Y181C. The method, then:
as §2, §3, §4

For another data set, the system named is HIV-1NL4-3 4XAZT. The description is as above. The conditions noted are these: MT-2, NL4-3 4XAZT. The method, then:
as §2, §3, §4

For another data set, the system named is HIV-1NL4-3 A986. The description is as above. The conditions noted are these: MT-2, NL4-3 A986. The method, then: as §2, §3, §4
For a further data set, the system named is HIV-1NL4-3 K103N. The description is as above. The conditions noted are these: MT-2, NL4-3 K103N. The method, then:
as §2, §3, §4

The next data set concerns HIV-1NL4-3 Y188C. Described as above. The conditions noted are these: MT-2, NL4-3 Y188C. The procedure: as §2, §3, §4
The subject of a further data set is HIV-1NL4-3 V1061. The data set is described as above. The conditions noted are these: MT-2, NL4-3 V1061. The procedure: as §2, §3, §4
Another data set concerns HIV-1 Ba-L. Nature of the data set: antiviral assay in Mo/M.PHI. (p24), Ba-L. Conditions: Human immunodeficiency virus 1, BAL, cell-free p24. The procedure:
as §2, with “MT-2, MT-4, U1, HeLa-CD4-LTR-β-gal and 174xCEM cells were obtained from the AIDS Research and Reference Program (National Institute of Allergy and Infectious Disease, National Institutes of Health, Bethesda, Md. USA), as were the HIV-2MS and the AZT-resistant HIV-1G910-6 isolates.” left out

A further data set has as its system HIV-1 BAKI(SI). The experiment in a line: antiviral assay in PBL (p24), clinical isolate BAKI. Conditions: Human immunodeficiency virus 1, cell-free p24. The method, then: as §2, with “MT-2, MT-4, U1, HeLa-CD4-LTR-β-gal and 174xCEM cells were obtained from the AIDS Research and Reference Program (National Institute of Allergy and Infectious Disease, National Institutes of Health, Bethesda, Md. USA), as were the HIV-2MS and the AZT-resistant HIV-1G910-6 isolates.” left out

A further data set concerns U1 cells. Nature of the data set: U1 cell viability (XTT) and cell number. Conditions: TNF-α stimulated U1 cells, 48 hours, FIG. 3(A). The procedure:
as §1, with “Proteins from both the virion and cellular lysates were separated by 4-20% SDS-PAGE (50 μg protein per lane), blotted onto PVDF membranes, reacted with anti-p7 and anti-p24 antisera, and then probed with HRP-conjugated goat anti-rabbit IgG and subsequently viewed with Western Blot Chemiluminescence Reagent (Dupont NEN, Wilmington, Del.).” left out
In general terms: Tetrazolium assays rely on reduction of a dye to a coloured formazan, in cell work by metabolically active cells.

As to `O=S1(=O)C[C@H](O)[C@H](O)CS1` (relative stereo) [NSC 624151, cis-1,1-dioxo[1,2]dithiane-4,5-diol], the “formation of infectious virus from infected cells” value was “inhibition of the formation of infectious virus from HIV-1 infected cells” in [1] and “prevention of the formation of infectious virus from previously infected cells” in data set [1] (listed as 624151). In addition, in [1] (Human immunodeficiency virus 1, 48 h, TNF-α stimulated U1 cells, read-out: concentration (as low as) at which infectious titer of released virions was effectively reduced), the minimal effective concentration is 3 µM. Also, in data set [1] (TNF-α stimulated U1 cells), the “levels of intracellular or extracellular viral p24” value was “did not dramatically reduce the levels of intracellular or extracellular viral p24”. Besides, the EC50 in the data set with HIV-1NL4-3 V179D was 20.2 µM; with HIV-1NL4-3 V1081 it was 20 µM; in the data set with HIV-1NL4-3 L74V, 19.8 µM; with HIV-1NL4-3 Y181C, 20.9 µM; in the data set on HIV-1NL4-3 4XAZT it was 10.7 µM; in the data set on HIV-1NL4-3 A986, 26.5 µM. The 50% effective concentration (EC50) in the data set with HIV-1NL4-3 K103N worked out at 17.3 µM; with HIV-1NL4-3 Y188C it was 19.4 µM; in the data set on HIV-1NL4-3 V1061 it was 20.8 µM; in the data set on HIV-1 Ba-L it was 6.2 µM; in the data set with HIV-1 BAKI(SI), 19 µM. The “cell viability (XTT) or cell number” value in the data set on U1 cells was “did not significantly reduce cell viability (XTT) or cell number”.

What is called EC50 is the concentration at which the effect is half-maximal.
